From ChEMBL document CHEMBL3886598, “Pyrazolyl-pyrimidine derivatives as kinase inhibitors” (2016)

Tests used:
[1] = target: Tyrosine-protein kinase JAK2 (Homo sapiens, UniProt O60674); test: JAK2 Enzymatic Assay: The assay has been performed using the commercial available JAK2 kinase domain (Invitrogen, Eugene, Oreg.). […] The JAK2 kinase assay was run with a final enzyme concentration of 1 nM, in the presence of 60 uM ATP, 3 nM 33P-γ-ATP and 64 uM of substrate BioDBn*306 (Aminoacid sequence: LPLDKDYYWREPGQ⿿SEQ ID NO: 1). The peptidic substrate was purchased from American Peptide Company (Sunnyvale, Calif.). Specific JAK2, JAK1 or JAK3 peptide substrates are trans-phosphorylated by JAKs kinase in the presence of ATP traced with 33P-γ-ATP. At the end of the phosphorylation reaction, the unreacted ATP, cold and radioactive, is captured by an excess of Dowex ion exchange resin that eventually settles by gravity to the bottom of the reaction plate. The supernatant is subsequently withdrawn and transferred into a counting plate that is then evaluated by […].
Sequence of Tyrosine-protein kinase JAK2 (O60674 whole entry, the tested form may be a part): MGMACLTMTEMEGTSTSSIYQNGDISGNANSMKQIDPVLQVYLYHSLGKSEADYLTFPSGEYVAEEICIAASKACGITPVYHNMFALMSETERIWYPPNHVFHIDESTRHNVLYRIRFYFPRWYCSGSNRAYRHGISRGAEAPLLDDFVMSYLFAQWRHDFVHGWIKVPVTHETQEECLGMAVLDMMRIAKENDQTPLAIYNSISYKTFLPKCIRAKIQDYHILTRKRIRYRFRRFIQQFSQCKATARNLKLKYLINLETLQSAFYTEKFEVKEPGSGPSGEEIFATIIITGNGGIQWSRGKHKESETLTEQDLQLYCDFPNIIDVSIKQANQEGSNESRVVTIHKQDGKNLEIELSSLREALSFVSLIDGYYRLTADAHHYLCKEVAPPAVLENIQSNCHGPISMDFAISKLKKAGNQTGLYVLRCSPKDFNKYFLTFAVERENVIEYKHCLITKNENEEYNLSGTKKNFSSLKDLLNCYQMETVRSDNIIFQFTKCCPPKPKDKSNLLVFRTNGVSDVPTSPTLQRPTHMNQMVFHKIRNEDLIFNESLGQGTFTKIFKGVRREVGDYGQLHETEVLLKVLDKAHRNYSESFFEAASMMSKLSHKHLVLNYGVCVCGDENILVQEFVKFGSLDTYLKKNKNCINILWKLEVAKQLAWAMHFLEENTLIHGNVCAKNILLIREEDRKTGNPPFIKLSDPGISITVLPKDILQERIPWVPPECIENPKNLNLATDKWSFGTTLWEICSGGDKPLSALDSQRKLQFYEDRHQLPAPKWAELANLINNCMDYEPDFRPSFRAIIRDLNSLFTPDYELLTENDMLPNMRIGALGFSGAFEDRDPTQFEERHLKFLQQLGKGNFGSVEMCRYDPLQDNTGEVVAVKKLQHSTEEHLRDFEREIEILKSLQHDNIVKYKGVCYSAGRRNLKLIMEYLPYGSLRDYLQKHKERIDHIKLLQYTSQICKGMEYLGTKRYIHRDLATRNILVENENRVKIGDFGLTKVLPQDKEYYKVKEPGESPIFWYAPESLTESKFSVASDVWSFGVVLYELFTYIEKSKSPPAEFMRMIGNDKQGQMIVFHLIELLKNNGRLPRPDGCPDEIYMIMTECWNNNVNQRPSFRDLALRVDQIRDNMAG

[2] = target: T1, Tyrosine-protein kinase JAK3 (Homo sapiens, UniProt P52333); test: JAK3 Enzymatic Assay: The assay has been performed using the JAK3 kinase domain (residues 781-1124 of the 1124 amino acid long full-length sequence, accession number P52333 of UniProtKB/Swiss-Prot databse). […] The JAK3 kinase assay was run with a final enzyme concentration of 1 nM, in the presence of 22 uM ATP, 1 nM 33P-γ-ATP and 40 uM of substrate BioDBn*306 (Amino acid sequence: LPLDKDYYWREPGQ-SEQ ID NO: 1). The peptidic substrate was purchased from American Peptide Company (Sunnyvale, Calif.).
T1 sequence (P52333 whole entry): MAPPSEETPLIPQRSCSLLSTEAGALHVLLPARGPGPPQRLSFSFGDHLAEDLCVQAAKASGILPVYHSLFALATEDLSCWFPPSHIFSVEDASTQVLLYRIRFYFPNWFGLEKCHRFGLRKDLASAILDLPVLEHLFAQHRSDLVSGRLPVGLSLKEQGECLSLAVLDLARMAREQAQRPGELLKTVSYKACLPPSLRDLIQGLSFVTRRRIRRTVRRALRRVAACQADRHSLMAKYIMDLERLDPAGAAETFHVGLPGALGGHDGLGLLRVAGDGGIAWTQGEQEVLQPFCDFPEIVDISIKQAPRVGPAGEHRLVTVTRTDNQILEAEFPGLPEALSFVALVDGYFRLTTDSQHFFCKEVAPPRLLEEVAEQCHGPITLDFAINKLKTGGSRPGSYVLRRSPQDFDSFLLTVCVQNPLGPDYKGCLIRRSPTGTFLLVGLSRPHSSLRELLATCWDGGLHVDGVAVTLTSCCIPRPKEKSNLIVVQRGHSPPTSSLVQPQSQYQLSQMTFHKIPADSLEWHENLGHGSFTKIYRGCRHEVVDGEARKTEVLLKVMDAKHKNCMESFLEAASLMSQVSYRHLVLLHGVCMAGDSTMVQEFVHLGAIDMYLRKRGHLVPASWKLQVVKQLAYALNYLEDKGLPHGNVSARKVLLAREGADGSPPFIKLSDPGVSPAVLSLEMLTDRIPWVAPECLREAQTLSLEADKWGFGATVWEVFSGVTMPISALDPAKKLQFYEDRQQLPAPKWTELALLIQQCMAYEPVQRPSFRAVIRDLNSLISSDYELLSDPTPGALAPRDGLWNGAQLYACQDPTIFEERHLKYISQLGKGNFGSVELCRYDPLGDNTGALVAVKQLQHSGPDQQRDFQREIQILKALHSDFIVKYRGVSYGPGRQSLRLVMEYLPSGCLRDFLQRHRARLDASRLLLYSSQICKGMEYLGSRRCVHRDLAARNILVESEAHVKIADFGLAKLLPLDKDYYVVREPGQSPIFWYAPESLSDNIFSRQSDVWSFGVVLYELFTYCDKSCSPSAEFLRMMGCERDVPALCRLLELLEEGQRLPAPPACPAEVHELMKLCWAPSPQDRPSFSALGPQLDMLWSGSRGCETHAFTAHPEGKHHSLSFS

IC50 [1]: < 5 µM
IC50 [2]: < 5 µM
Structure (SMILES): CCc1ccc(Cl)cc1-n1nc(-c2ccnc(N)n2)cc1C(N)=O
